Laboratory results taken from patent US20240018501A1, “HIGHER PERFORMANCE PROTEASES FOR SCARLESS PEPTIDE TAG REMOVAL” (priority 2017, published 2024).

System: CylA
Assay: CylA proteolytic cleavage of leader peptides (MALDI-TOF MS)
Type: biochemical, Enterococcus faecalis
Experimental: Targeted peptides were dissolved in H2O to a final concentration of 3 mg/mL. To a 85 μL solution of peptides, 10 μL of 500 mM HEPES buffer (pH 7.5) was added followed by 5 μL of 0.5 mg/mL AspN protease (for modified CylLL and CylLS peptides), 0.1 mg/mL CylA protease (for modified and unmodified CylLL, CylLS peptides, and modified HalA2-GDVQAE peptide) or 0.1 mg/mL LicP protease (for LicA2). For cleavage tests of the engineered GDVQAE peptides, CylA was added to a final concentration of 0.01 mg/mL, whereas the peptide was added to a concentration of 0.3 mg/mL with 50 mM HEPES buffer (pH 7.5). The protease cleavage reaction mixtures were kept at 25° C. for 1 to 48 h. Osmotic pressure was adjusted with NaCl solution with a final concentration of 150 mM. The digested peptide mixture was directly used for antimicrobial and hemolytic assay. For the kinetic analysis of CylA and its mutant proteins, His6-CylA-27-412 and His6-CylA-27-412-E95A proteins were added to a final concentration of 500 ng/mL and 2.5 μg/mL (22 nM and 110 nM), respectively, with modified CylLS supplied at a concentration of 0.3 mg/mL (36 μM). The reactions were allowed to proceed at room temperature and were stopped by 1% TFA at different time points for LC/MS analysis. Halα and Halβ were obtained by factor Xa cleavage of modified HalA1Xa and HalA2 Xa peptides using the procedure of Y. Shi, et al. J. Am. Chem. Soc. […]

His6-NisA-GDVQAE: linear NisA with engineered GDVQAE recognition sequence
leader peptide removal / cleavage by CylA: successfully removed
